Data set [1] can be described thus: Hepatic clearance in human liver microsomes at 1 uM after 20 to 60 mins by LC-MS/MS analysis. It counts as ADME, Microsome.
A short description of data set [2]: Hepatic clearance in CD-1 mouse liver microsomes at 1 uM after 20 to 60 mins by LC-MS/MS analysis. The data set is classed as ADME, Microsome. For orientation: Liver microsomes are vesicles of endoplasmic reticulum, rich in cytochrome P450 enzymes.
A short description of data set [3]: Apparent permeability from apical to basolateral side in MDCK cells at 10 uM by LC-MS/MS analysis. The data set is classed as ADME, cell-based, Canis lupus familiaris. The note with it: dog.
The nature of data set [4]: Hepatic clearance in CD-1 mouse hepatocytes at 1 uM by LC-MS/MS analysis. It counts as ADME, cell-based, Liver, Hepatocyte.
A short description of data set [5]: Aqueous solubility of the compound in PBS buffer at 100 uM after 24 hrs by LC/CLND analysis. The data set is classed as physicochemical.
Data set [6] in a line: Oral bioavailability in BALB/c mouse at 5 mg/kg by LC/MS/MS analysis. It counts as ADME, organism-based. The note with it: in vivo.
The nature of data set [7]: Half life in BALB/c mouse at 5 mg/kg, po by LC/MS/MS analysis. It counts as ADME, organism-based. Further details: dose 5 mg/kg, route oral. As to conditions: in vivo.
A short description of data set [8]: Tmax in BALB/c mouse at 5 mg/kg, po by LC/MS/MS analysis. The data set is classed as ADME, organism-based. Further details: dose 5 mg/kg, route oral. As to conditions: in vivo.
Data set [9] in a line: Clearance in BALB/c mouse at 1 mg/kg, iv by LC/MS/MS analysis. It counts as ADME, organism-based. Further details: dose 1 mg/kg, route intravenous. The note with it: in vivo.
A short description of data set [10]: Half life in BALB/c mouse at 1 mg/kg, iv by LC/MS/MS analysis. The data set is classed as ADME, organism-based. Further details: dose 1 mg/kg, route intravenous. The note with it: in vivo.
A short description of data set [11]: Volume of distribution at steady state in BALB/c mouse at 1 mg/kg, iv by LC/MS/MS analysis. The data set is classed as ADME, organism-based. Further details: dose 1 mg/kg, route intravenous. As to conditions: in vivo, read-out: Vdss.
Data set [12] is described as follows: Cmax in BALB/c mouse at 5 mg/kg, po by LC/MS/MS analysis. Further details: dose 5 mg/kg, route oral. It counts as ADME, organism-based. The note with it: in vivo.

Molecules are shown by their SMILES. ≈ marks a conversion by molar mass, not a printed value.

Take `O=C(NCc1cccnc1)Nc1ccc(S(=O)(=O)N2CCOCC2)cc1`: the CLhep predicted at 1 µM in [1] is 6 mL/min/kg.

On to `O=C(NCc1cccnc1)Nc1ccc(S(=O)(=O)c2ccccc2)cc1`, for which the CLhep predicted at 1 µM in data set [1] was 8 mL/min/kg.

With `O=C(NCc1cccnc1)Nc1ccc(S(=O)(=O)N2C3CCC2COC3)cc1`, in data set [1], the CLhep predicted at 1 µM was 8 mL/min/kg.

As to `O=C(NCc1cccnc1)Nc1ccc(S(=O)(=O)N2C[C@@H]3C[C@H]2CO3)cc1`, the CLhep predicted at 1 µM in [1] was 3 mL/min/kg.

`O=C(NCc1cccnc1)Nc1ccc(S(=O)(=O)N2CCC23COC3)cc1`: the CLhep predicted at 1 µM in [1] is 8 mL/min/kg.

Take `O=C(NCc1cccnc1)Nc1ccc(S(=O)(=O)N2CC3(COC3)C2)cc1`: the CLhep predicted at 1 µM in [1] is 7 mL/min/kg.

On to `O=C(NCc1cccnc1)Nc1ccc(S(=O)(=O)N2CCC3(CCCN3)CC2)cc1`, for which the CLhep predicted at 1 µM in data set [1] is 7 mL/min/kg.

By Papp A→B is commonly meant the apparent permeability from the apical to the basolateral side of a cell layer. As a reminder, the solubility is how much of the substance goes into solution per volume. For the molecule `O=C(NCc1cccnc1)Nc1ccc(S(=O)(=O)N2CCC3(CCNC3)CC2)cc1`, the results for the CLhep predicted at 1 µM in data set [2], in [1] and in data set [4] were 44 mL/min/kg, 4 mL/min/kg and 9.2 mL/min/kg, respectively. The Papp A→B at 10 µM in data set [3] amounted to 0.07 ×10⁻⁶ cm/s. This molecule also had a solubility at 24 h, 100 µM in data set [5] of 75 µM (≈ 32.2 µg/mL).

For `O=C(NCc1cccnc1)Nc1ccc(S(=O)(=O)N2CCC3(CCNCC3)C2)cc1`, the CLhep predicted at 1 µM in data set [1] was 2 mL/min/kg.

For the molecule `O=C(NCc1cccnc1)Nc1ccc(S(=O)(=O)N2CCCNCC2)cc1`, in data set [1], the CLhep predicted at 1 µM is 6 mL/min/kg.

Take `O=C(NCc1cccnc1)Nc1ccc(S(=O)(=O)N[C@@H]2CCNC[C@H]2F)cc1`: the CLhep predicted at 1 µM in [1] is 3 mL/min/kg.

For the molecule `CCN1CC[C@@H](NS(=O)(=O)c2ccc(NC(=O)NCc3cccnc3)cc2)[C@@H](F)C1`, in data set [1], the CLhep predicted at 1 µM was 6 mL/min/kg.

As to `N[C@H]1CC[C@H](NS(=O)(=O)c2ccc(NC(=O)NCc3cccnc3)cc2)CC1`, the results for the CLhep predicted at 1 µM in data set [2], in data set [1] and in [4] were 27 mL/min/kg, 5 mL/min/kg and 6.3 mL/min/kg, respectively. In data set [3], the Papp A→B at 10 µM was 0.2 ×10⁻⁶ cm/s. The solubility at 24 h, 100 µM in data set [5] was 161 µM (≈ 65 µg/mL).

As for `O=C(NCc1cccnc1)Nc1ccc(S(=O)(=O)N[C@H]2CC[C@H](O)CC2)cc1`, the CLhep predicted at 1 µM in data set [1] was 2 mL/min/kg.

On to `O=C(NCc1cccnc1)Nc1ccc(S(=O)(=O)N[C@H]2CCC[C@H](O)C2)cc1`, for which the CLhep predicted at 1 µM was 61 mL/min/kg in data set [2], 4 mL/min/kg in data set [1] and 19 mL/min/kg in data set [4]. Besides, the Papp A→B at 10 µM in data set [3] amounted to 0.1 ×10⁻⁶ cm/s. In data set [5], this molecule had a solubility at 24 h, 100 µM of 136 µM (≈ 55 µg/mL).

With `COc1ccc(CNC(=O)Nc2ccc(S(=O)(=O)c3ccccc3)cc2)cn1`, the CLhep predicted at 1 µM in data set [1] was 12 mL/min/kg.

Take `O=C(NCc1ccc(Cl)nc1)Nc1ccc(S(=O)(=O)c2ccccc2)cc1`: the CLhep predicted at 1 µM in data set [1] is 6 mL/min/kg.

In general, bioavailability refers to dose-corrected exposure relative to a reference, in per cent. Low values mean poor availability, high ones good availability. One may read the half-life as the time in which the quantity being followed falls by half. Higher therefore signals slow loss. Broadly, the Tmax is the time from dosing to the highest level. For orientation: clearance means the volume of plasma or blood freed of the substance per unit of time. A high value points to efficient removal. The term Cmax denotes the maximum level reached in the sampled fluid or tissue. Consider `Nc1ccc(CNC(=O)Nc2ccc(S(=O)(=O)c3ccccc3)cc2)cn1`, for which the CLhep predicted at 1 µM in data set [2] was 42 mL/min/kg; in [1], 5 mL/min/kg; in data set [4] it was 12 mL/min/kg. Further, the Papp A→B at 10 µM in [3] was determined as 2.9 ×10⁻⁶ cm/s. In [6], this molecule came in with a bioavailability of 31%. The half-life in [7] was 2.7 h; in data set [10], 2.6 h. Also, in [8], the time of peak concentration (Tmax) was 0.83 h. This molecule displayed a clearance in [9] of 4.9 mL/min/kg. The solubility at 24 h, 100 µM in [5] was 109 µM (≈ 41.7 µg/mL). In data set [11], the Vd worked out at 0.51 L/kg. The molecule further registered a Cmax in data set [12] of 2900 nM.

For the molecule `O=C(NCc1cncc(F)c1)Nc1ccc(S(=O)(=O)c2ccccc2)cc1`, the CLhep predicted at 1 µM in data set [1] is 8 mL/min/kg.

For `O=C(NCc1cccnn1)Nc1ccc(S(=O)(=O)c2ccccc2)cc1`, in [1], the CLhep predicted at 1 µM is 3 mL/min/kg.

As to `O=C(NCc1cnccn1)Nc1ccc(S(=O)(=O)c2ccccc2)cc1`, in data set [1], the CLhep predicted at 1 µM is 5 mL/min/kg.

As for `O=C(NCc1cncnc1)Nc1ccc(S(=O)(=O)c2ccccc2)cc1`, in data set [1], the CLhep predicted at 1 µM was 6 mL/min/kg.

In the case of `Nc1ncc(CNC(=O)Nc2ccc(S(=O)(=O)c3ccccc3)cc2)cn1`, in data set [1], the CLhep predicted at 1 µM is 3 mL/min/kg.

Regarding `C[C@@H]1CN(S(=O)(=O)c2ccc(NC(=O)NCc3cccnc3)cc2)C[C@H](C)O1`, the CLhep predicted at 1 µM was 81 mL/min/kg in data set [2], 17 mL/min/kg in data set [1] and 55 mL/min/kg in data set [4]. Further, the Papp A→B at 10 µM in data set [3] worked out at 3.1 ×10⁻⁶ cm/s. In data set [5], this molecule registered a solubility at 24 h, 100 µM of 112 µM (≈ 45.3 µg/mL).

Turning to `CC1CNCCN(S(=O)(=O)c2ccc(NC(=O)NCc3cccnc3)cc2)C1` (racemic), the results for the CLhep predicted at 1 µM in data set [2], in data set [1] and in [4] were 48 mL/min/kg, 8 mL/min/kg and 16 mL/min/kg, respectively. Besides, in data set [3], the Papp A→B at 10 µM was determined as 0.1 ×10⁻⁶ cm/s. Further, the solubility at 24 h, 100 µM in [5] amounted to 107 µM (≈ 43.2 µg/mL).

In the case of `CC1CCN(S(=O)(=O)c2ccc(NC(=O)NCc3cccnc3)cc2)CCN1` (racemic), the CLhep predicted at 1 µM in data set [1] was 5 mL/min/kg.

As for `O=C(NCc1cccnc1)Nc1ccc(S(=O)(=O)N2CCNC(C(F)(F)F)CC2)cc1` (racemic), the CLhep predicted at 1 µM in data set [1] was 18 mL/min/kg.

Consider `C[C@@H]1COC[C@@H](C)N1S(=O)(=O)c1ccc(NC(=O)NCc2cccnc2)cc1` (racemic), for which the CLhep predicted at 1 µM in data set [1] is 17 mL/min/kg.

(Values after ChEMBL document CHEMBL2390826, “Discovery of potent and efficacious urea-containing nicotinamide phosphoribosyltransferase (NAMPT) inhibitors with reduced CYP2C9 inhibition properties” (Bioorg Med Chem Lett, 2013).)
